Results from ChEMBL document CHEMBL4831492, “Design and synthesis of 2-(2-isonicotinoylhydrazineylidene)propanamides as InhA inhibitors with high antitubercular activity” (Eur J Med Chem, 2021).
Values after ≈ are worked out from the molar mass of the structure shown. Active and inactive are the calls of the source. No cut-off for these calls is given here.

What was measured:
Mycobacterium kansasii [1] = assay: Antimycobacterial activity against drug resistant Mycobacterium kansasii 235/80 assessed as inhibition of mycobacterial growth at 62.5 uM incubated for 21 days; format: functional, organism-based; conditions: time 21.0 day
HepG2 [2] = assay: Cytostatic activity in human HepG2 cells assessed as reduction in cell viability incubated overnight followed by compound washout and further incubated for 72 hrs in medium containing serum by MTT assay; format: functional, cell-based; conditions: HepG2, 72 h
Mycobacterium kansasii [3] = assay: Antimycobacterial activity against drug resistant Mycobacterium kansasii 6509/96 assessed as minimal inhibitory concentration required for complete inhibition of mycobacterial growth incubated for 7 days; format: functional; conditions: 6509/96, 168 h, time 7 day
[4] = tested on: Mycobacterium tuberculosis; assay: Antimycobacterial activity against drug susceptible Mycobacterium tuberculosis H37Rv assessed as minimal inhibitory concentration required for complete inhibition of mycobacterial growth incubated for 21 days; format: functional; conditions: 504 h, time 21 day
Mycobacterium kansasii [5] = assay: Antimycobacterial activity against drug resistant Mycobacterium kansasii 6509/96 assessed as minimal inhibitory concentration required for complete inhibition of mycobacterial growth incubated for 14 days; format: functional; conditions: 6509/96, 336 h, time 14 day
Mycobacterium kansasii [6] = assay: Antimycobacterial activity against drug resistant Mycobacterium kansasii 6509/96 assessed as minimal inhibitory concentration required for complete inhibition of mycobacterial growth incubated for 21 days; format: functional; conditions: 6509/96, 504 h, time 21 day
[7] = Selectivity index, ratio of CC50 for cytotoxicity against human HepG2 cells to MIC for antimycobacterial activity against drug susceptible Mycobacterium […]; format: toxicity, cell-based; conditions: read-out: Selectivity Index
HepG2 [8] = assay: Cytotoxicity against human HepG2 cells assessed as reduction in cell viability incubated overnight followed by compound washout by MTT assay; format: cell-based
Mycobacterium kansasii [9] = assay: Antimycobacterial activity against drug resistant Mycobacterium kansasii 235/80 assessed as minimal inhibitory concentration required for complete inhibition of mycobacterial growth incubated for 7 days; format: functional; conditions: 235/80, 168 h, time 7 day
Mycobacterium avium [10] = assay: Antimycobacterial activity against drug resistant Mycobacterium avium 330/88 assessed as inhibition of mycobacterial growth at 125 uM incubated for 21 days; format: functional, organism-based; conditions: time 21.0 day
[11] = tested on: Mycobacterium tuberculosis; assay: Antimycobacterial activity against drug susceptible Mycobacterium tuberculosis H37Rv assessed as minimal inhibitory concentration required for complete inhibition of mycobacterial growth incubated for 14 days; format: functional; conditions: 336 h, time 14 day
[12] = Selectivity index, ratio of CC50 for cytotoxicity against human HepG2 cells to MIC for antimycobacterial activity against drug susceptible Mycobacterium tuberculosis H37Rv; format: toxicity, cell-based; conditions: read-out: Selectivity Index
Mycobacterium kansasii [13] = assay: Antimycobacterial activity against drug resistant Mycobacterium kansasii 235/80 assessed as inhibition of mycobacterial growth at 62.5 uM incubated for 14 days; format: functional, organism-based; conditions: time 14.0 day
Mycobacterium avium [14] = assay: Antimycobacterial activity against drug resistant Mycobacterium avium 330/88 assessed as inhibition of mycobacterial growth at 125 uM incubated for 14 days; format: functional, organism-based; conditions: time 14.0 day

SMILES: C/C(=N\NC(=O)c1ccncc1)C(=O)Nc1cccc(Cl)c1
- Activity (Mycobacterium kansasii [1]): inactive
- IC50 (HepG2 [2]): > 50 µM
- MIC (Mycobacterium kansasii [3]): 2 µM (≈ 0.633 µg/mL)
- MIC [4]: 0.125 µM (≈ 0.0396 µg/mL)
- MIC (Mycobacterium kansasii [5]): 2 µM (≈ 0.633 µg/mL)
- MIC (Mycobacterium kansasii [6]): 4 µM (≈ 1.27 µg/mL)
- selectivity ratio [7]: > 12.5
- IC50 (HepG2 [8]): > 50 µM
- MIC (Mycobacterium kansasii [9]): 32 µM (≈ 10.1 µg/mL)
- Activity (Mycobacterium avium [10]): inactive
- MIC [11]: 0.125 µM (≈ 0.0396 µg/mL)
- selectivity ratio [12]: > 400
- Activity (Mycobacterium kansasii [13]): inactive
- Activity (Mycobacterium avium [14]): inactive
